IC50 data for 36 compounds are collected here from ChEMBL document CHEMBL1137827, “Spiroquinazolinones as novel, potent, and selective PDE7 inhibitors. Part 1” (Bioorg Med Chem Lett, 2004).

Test [1] concerns the target T1, Phosphodiesterase 1 (Homo sapiens, UniProt P54750+Q01064+Q14123). As to the kind of experiment: In vitro inhibition of human Phosphodiesterase 1 partially purified from THP-1 cells.
Test [2] has as its target T2, cGMP-specific 3',5'-cyclic phosphodiesterase (Homo sapiens, UniProt O76074). As to the kind of experiment: Inhibition of human Phosphodiesterase 5.
Test [3] addresses T3, cGMP-inhibited 3',5'-cyclic phosphodiesterase 3A (Homo sapiens, UniProt Q14432). The test can be described thus: In vitro inhibition of human Phosphodiesterase 3A3 expressed in baculovirus infected Sf9 cells.
Test [4] addresses T4, 3',5'-cyclic-AMP phosphodiesterase 4D (Homo sapiens, UniProt Q08499). The test can be described thus: Inhibition of human Phosphodiesterase 4D3 expressed in baculovirus infected Sf9 cells.
The target of test [5] is T5, High affinity 3',5'-cyclic-AMP phosphodiesterase 7A (Homo sapiens, UniProt Q13946). The test can be described thus: In vitro inhibition of human Phosphodiesterase 7A1 expressed in baculovirus infected Sf9 cells.
The target in test [6] is T5, High affinity 3',5'-cyclic-AMP phosphodiesterase 7A. The test can be described thus: Inhibition of human Phosphodiesterase 7A1 expressed in baculovirus infected Sf9 cells.
Test [7] has as its target T4, 3',5'-cyclic-AMP phosphodiesterase 4D. As to the kind of experiment: In vitro inhibition of human Phosphodiesterase 4D3 expressed in baculovirus infected Sf9 cells.
Test [8] addresses T2, cGMP-specific 3',5'-cyclic phosphodiesterase. The test can be described thus: In vitro inhibition of human Phosphodiesterase 5.
Test [9] has as its target T1, Phosphodiesterase 1. The test can be described thus: Inhibition of human Phosphodiesterase 1 partially purified from THP-1 cells. The class given is cell-free.
The target in test [10] is T3, cGMP-inhibited 3',5'-cyclic phosphodiesterase 3A. The test can be described thus: Inhibition of human Phosphodiesterase 3A3 expressed in baculovirus infected Sf9 cells.

pIC50: −log10 of the molar value. Where only a bound is given, the exact number is not on record here.

T5 sequence (Q13946 whole entry): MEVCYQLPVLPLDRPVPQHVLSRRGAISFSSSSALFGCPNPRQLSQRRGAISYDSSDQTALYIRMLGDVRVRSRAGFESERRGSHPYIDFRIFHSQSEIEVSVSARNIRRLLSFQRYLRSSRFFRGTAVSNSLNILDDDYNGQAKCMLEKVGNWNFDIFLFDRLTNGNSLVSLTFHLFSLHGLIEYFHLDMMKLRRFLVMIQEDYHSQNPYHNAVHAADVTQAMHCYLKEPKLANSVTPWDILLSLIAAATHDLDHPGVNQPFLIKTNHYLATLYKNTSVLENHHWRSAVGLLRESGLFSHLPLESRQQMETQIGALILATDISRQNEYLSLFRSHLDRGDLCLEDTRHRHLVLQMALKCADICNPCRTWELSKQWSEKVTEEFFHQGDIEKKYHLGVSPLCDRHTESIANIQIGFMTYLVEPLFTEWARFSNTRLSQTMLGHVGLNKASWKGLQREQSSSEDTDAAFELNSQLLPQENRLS
T3 sequence (Q14432 whole entry): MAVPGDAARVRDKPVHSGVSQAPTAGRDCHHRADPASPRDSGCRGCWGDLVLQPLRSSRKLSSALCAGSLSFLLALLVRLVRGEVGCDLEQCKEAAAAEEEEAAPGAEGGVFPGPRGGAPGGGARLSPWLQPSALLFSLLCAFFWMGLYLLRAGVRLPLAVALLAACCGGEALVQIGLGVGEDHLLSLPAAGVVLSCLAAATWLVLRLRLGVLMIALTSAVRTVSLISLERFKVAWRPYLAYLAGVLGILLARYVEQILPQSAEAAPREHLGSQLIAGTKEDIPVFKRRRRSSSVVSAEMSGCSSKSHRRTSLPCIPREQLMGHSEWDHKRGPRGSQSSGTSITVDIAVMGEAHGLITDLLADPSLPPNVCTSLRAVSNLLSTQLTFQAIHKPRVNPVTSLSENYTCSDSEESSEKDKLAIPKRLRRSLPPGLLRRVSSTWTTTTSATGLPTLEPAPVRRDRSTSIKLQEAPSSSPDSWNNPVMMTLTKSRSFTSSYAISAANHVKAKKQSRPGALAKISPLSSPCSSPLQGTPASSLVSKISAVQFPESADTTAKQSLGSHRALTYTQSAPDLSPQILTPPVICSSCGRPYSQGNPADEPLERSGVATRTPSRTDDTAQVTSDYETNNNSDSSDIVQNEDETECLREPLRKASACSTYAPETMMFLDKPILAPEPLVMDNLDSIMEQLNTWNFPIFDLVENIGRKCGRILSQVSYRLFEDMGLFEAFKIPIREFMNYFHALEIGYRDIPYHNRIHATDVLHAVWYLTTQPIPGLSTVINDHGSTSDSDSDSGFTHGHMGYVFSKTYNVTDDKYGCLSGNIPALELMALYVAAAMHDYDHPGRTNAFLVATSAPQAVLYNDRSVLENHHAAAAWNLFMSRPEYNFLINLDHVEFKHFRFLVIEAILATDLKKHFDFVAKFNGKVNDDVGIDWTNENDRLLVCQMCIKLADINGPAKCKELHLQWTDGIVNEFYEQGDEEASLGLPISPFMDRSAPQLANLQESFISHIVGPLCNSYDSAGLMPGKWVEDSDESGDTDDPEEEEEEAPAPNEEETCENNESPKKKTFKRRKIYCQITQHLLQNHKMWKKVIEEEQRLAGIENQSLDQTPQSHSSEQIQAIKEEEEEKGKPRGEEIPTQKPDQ
T4 sequence (Q08499 whole entry): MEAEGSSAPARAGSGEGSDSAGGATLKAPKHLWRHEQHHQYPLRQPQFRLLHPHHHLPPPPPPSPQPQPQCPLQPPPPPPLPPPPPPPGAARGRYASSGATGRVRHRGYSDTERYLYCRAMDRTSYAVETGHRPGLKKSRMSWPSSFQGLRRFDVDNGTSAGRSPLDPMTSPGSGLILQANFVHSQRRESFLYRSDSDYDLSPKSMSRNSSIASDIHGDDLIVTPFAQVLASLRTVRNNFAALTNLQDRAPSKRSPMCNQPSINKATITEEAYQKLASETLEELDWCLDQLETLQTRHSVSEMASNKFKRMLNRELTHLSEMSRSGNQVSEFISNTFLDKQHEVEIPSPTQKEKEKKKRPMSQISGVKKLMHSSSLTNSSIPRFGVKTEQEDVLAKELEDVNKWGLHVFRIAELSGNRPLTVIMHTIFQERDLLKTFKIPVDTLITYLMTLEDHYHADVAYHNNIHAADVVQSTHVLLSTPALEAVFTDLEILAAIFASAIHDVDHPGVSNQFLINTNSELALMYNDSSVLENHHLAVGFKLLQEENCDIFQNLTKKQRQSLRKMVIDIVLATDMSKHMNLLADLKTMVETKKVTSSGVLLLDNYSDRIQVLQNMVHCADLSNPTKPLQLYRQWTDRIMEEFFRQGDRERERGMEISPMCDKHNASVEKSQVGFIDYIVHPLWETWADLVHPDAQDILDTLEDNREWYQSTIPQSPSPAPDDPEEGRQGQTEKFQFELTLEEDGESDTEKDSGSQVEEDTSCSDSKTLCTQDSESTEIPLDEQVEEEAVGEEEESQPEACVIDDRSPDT

As for `NC(=O)c1ccc(-c2cc(Cl)c3c(c2)C2(CCCCC2)NC(=O)N3)cc1`, in [1], the concentration for half-maximal inhibition (IC50) is 1.28 µM. For the same compound, the negative logarithm of the IC50 (pIC50) in [2] was 4.94; in test [3] it was 6.55; in test [4] it was 6.16; in test [5] it was 7.70.
`Cc1cccc2c1NC(=O)NC21CCCCC1`: the pIC50 in test [6] is 6.10.
Same read-out and setting: with `O=C1Nc2c(Br)cccc2C2(CCCCCC2)N1` the figure was 7.22.
Still for that read-out and setting: in the case of `O=C1Nc2ccc(-c3ccccc3)cc2C2(CCCCC2)N1` it was 6.01; in that of `CCCC1(CCC)NC(=O)Nc2c(Br)cccc21`, 5.58.
For the compound `O=C1Nc2c(Cl)cc(-c3cccnc3)cc2C2(CCCCC2)N1`, the pIC50 was 5.81 in [7], 4.83 in test [3], 4.71 in test [8] and 7.30 in test [5]. In test [1], this compound had an IC50 of 2.86 µM.
`CC1CCC2(CC1)NC(=O)Nc1c(Br)cccc12` (configuration not stated): the pIC50 in test [6] was 6.68.
For `CN(C)CCCNC(=O)c1cccc(-c2cc(Cl)c3c(c2)C2(CCCCC2)NC(=O)N3)c1`, the pIC50 in test [7] was 5.84; in test [3], 4.11; in [8], below 4.07; in [5] it was 8.00. This compound had a half-inhibitory concentration (IC50) in test [1] of 5.16 µM.
For `CN1CCN(C(=O)c2ccccc2-c2cc(Cl)c3c(c2)C2(CCCCC2)NC(=O)N3)CC1`, the pIC50 is 4.80 in test [7], below 4.04 in test [3], below 4.00 in [8] and 5.82 in test [5]. Moreover, the 50% inhibitory concentration (IC50) in test [1] came out at 20.1 µM.
The compound `CCC1(CC)NC(=O)Nc2c(Br)cccc21` had a pIC50 in [6] of 5.18.
On to `CN1CCN(C(=O)c2ccc(-c3cc(Cl)c4c(c3)C3(CCCCC3)NC(=O)N4)cc2)CC1`, for which the pIC50 was 5.77 in [7], 4.53 in test [2], 4.53 in [3] and 8.00 in [5]. In [1], this compound had an IC50 of 7.01 µM.
As for `O=C1Nc2c(Cl)cc(-c3ccc(C(=O)O)cc3)cc2C2(CCCCC2)N1`, the pIC50 is 6.33 in test [7], 4.67 in test [3], 5.07 in test [8] and 8.00 in test [5]. Also, the half-inhibitory concentration (IC50) in [1] amounted to 0.89 µM.
As to `O=C1Nc2c(Cl)cc(-c3ccccn3)cc2C2(CCCCC2)N1`, the negative logarithm of the IC50 (pIC50) in [7] is 5.74; in test [3], 4.35; in [8], 4.16; in [5] it was 7.52. In addition, the 50% inhibitory concentration (IC50) in [1] was determined as 8.3 µM.
Taken in the same sequence, the figures for `O=C1Nc2c(Cl)cc(-c3ccncc3)cc2C2(CCCCC2)N1` were 6.00, 4.95, 5.02, 7.52 and 3.01 µM.
`CN(C)CCCNC(=O)c1ccc(-c2cc(Cl)c3c(c2)C2(CCCCC2)NC(=O)N3)cc1`: the negative logarithm of the IC50 (pIC50) in test [7] is 5.82; in test [3], 4.35; in test [8], below 4.29; in test [5] it was 7.70. In test [1], this compound displayed an IC50 of 6.47 µM.
`CN1CCN(C(=O)c2cccc(-c3cc(Cl)c4c(c3)C3(CCCCC3)NC(=O)N4)c2)CC1`: the negative logarithm of the IC50 (pIC50) is 5.88 in test [7], 7.40 in [6], 4.50 in test [3] and 4.28 in [8]. The same compound returned an IC50 in test [1] of 6.39 µM.
In the case of `O=C1Nc2ccc(Cl)cc2C2(CCCCC2)N1`, in test [6], the pIC50 is 5.32.
Same read-out and setting: in the case of `Cc1cc(Cl)c2c(c1)C1(CCCCC1)NC(=O)N2` it was 6.80; in that of `COc1ccc2c(c1)NC(=O)NC21CCCCC1`, 5.02; in that of `O=C1Nc2c(C(F)(F)F)cccc2C2(CCCCC2)N1`, 5.53.
Turning to `O=C1Nc2ccc(Cl)c(Cl)c2C2(CCCCC2)N1`, the pIC50 in [6] was 6.22.
As for `O=C1Nc2c(I)cccc2C2(CCCCC2)N1`, the pIC50 in test [6] was 5.16.
Turning to `CN(C)CCNC(=O)c1ccc(-c2cc(Cl)c3c(c2)C2(CCCCC2)NC(=O)N3)cc1`, the pIC50 is 5.79 in test [7], 4.37 in test [3], below 4.17 in test [8] and 7.70 in test [5]. The IC50 in test [1] came out at 6.29 µM.
`COc1ccc2c(c1)C1(CCCCC1)NC(=O)N2`: the negative logarithm of the IC50 (pIC50) in test [6] is 5.49.
In test [6], `O=C1Nc2cc(Cl)ccc2C2(CCCCC2)N1` showed a pIC50 of 5.57.
Same read-out and setting: in the case of `O=C1Nc2cccc(Cl)c2C2(CCCCC2)N1` it was 6.08.
Turning to `O=C1Nc2c(Cl)cc(-c3cccc(C(=O)O)c3)cc2C2(CCCCC2)N1`, the pIC50 in test [7] was 6.13; in test [3] it was 4.78; in test [8] it was 4.90; in test [5] it was 7.70. In [1], this compound registered an IC50 of 0.71 µM.
With `CN(C)CCNC(=O)c1cccc(-c2cc(Cl)c3c(c2)C2(CCCCC2)NC(=O)N3)c1`, the pIC50 in test [7] is 5.80; in [3] it was below 4.10; in [8], below 4.00; in [5], 7.70. This compound gave an IC50 in test [1] of 11.6 µM.
`O=C1Nc2c(Br)cccc2C2(CCC2)N1` had a pIC50 in test [6] of 5.85.
Still for that read-out and setting: in the case of `O=C1Nc2c(Br)cccc2C2(CCCCC2)N1` it was 7.22.
In [6], `O=C1Nc2c(F)cccc2C2(CCCCC2)N1` had a negative logarithm of the IC50 (pIC50) of 6.41.
On the same count and under the same terms, in the case of `O=C1Nc2ccccc2C2(CCCCC2)N1` it was 5.18; in that of `O=C1Nc2cc(Cl)c(Cl)cc2C2(CCCCC2)N1`, 5.43.
Consider `O=C1Nc2c(Cl)cc(-c3ccccc3)cc2C2(CCCCC2)N1`, for which the pIC50 was 8.00 in [6], 4.16 in test [2], below 4.00 in test [10] and 5.85 in [4]. Also, in test [9], the IC50 is 3.26 µM.
As for `COc1cc(Cl)c2c(c1)C1(CCCCC1)NC(=O)N2`, the pIC50 in test [6] was 6.80.
The compound `O=C1Nc2c(Cl)cc(Cl)cc2C2(CCCCC2)N1` gave a negative-log IC50 (pIC50) in [6] of 6.92.
